In patent publication US20200369629A1, “BENZAMIDE COMPOUNDS AND THEIR USE AS HERBICIDES” (BASF SE, priority 2017, published 2020):

Legend:
Type in all cases: in vivo
[1] = test system: ALOMY (Alopecurus myosuroiedes); test: Greenhouse pre-emergence test, test series 2, ALOMY; conditions: application rate 125 g/ha, scale 0 to 100 (100 = no emergence, 0 = no damage)
Text: (§1) The seeds of the test plants were sown separately for each species. For the pre-emergence treatment, the active ingredients, which had been suspended or emulsified in water, were applied directly after sowing by means of finely distributing nozzles. The containers were irrigated gently to promote germination and growth and subsequently covered with transparent plastic hoods until the plants had rooted. This cover caused uniform germination of the test plants, unless this had been impaired by the active ingredients. For the post-emergence treatment, the test plants were first grown to a height of 3 to 15 cm, depending on the plant habit, and only then treated with the active ingredients which had been suspended or emulsified in water. For this purpose, the test plants were either sown directly and grown in the same containers, or they were first grown separately as seedlings and transplanted into the test containers a few days prior to treatment. Depending on the species, the plants were kept at 10-25° C. or 20-25° C., respectively. The test period extended over 2 to 4 weeks. During this time, the plants were tended, and their response to the individual treatments was evaluated. Evaluation was carried out using a scale from 0 to 100. 100 means no emergence of the plants, or complete destruction of at least the aerial moieties, and 0 means no damage, or normal course of growth. A good herbicidal activity is given at values of at least 70 and a very good herbicidal activity is given at values of at least 85. Test Series 2: At an application rate of 125 g/ha the following compounds were tested in pre-emergence tests against ALOMY (Alopecurus myosuroiedes)

[2] = test system: CHEAL (Chenopodium album); test: Greenhouse post-emergence test, test series 1, CHEAL; conditions: application rate 62.5 g/ha, scale 0 to 100 (100 = complete destruction, 0 = no damage)
Text: as §1, with “Series 1:” for “Series 2:”, “of 62.5” for “of 125”, “in post-emergence” for “in pre-emergence”, “tests against: CHEAL (Chenopodium album)” for “tests against ALOMY (Alopecurus myosuroiedes)”

[3] = test system: AMARE (Amaranthus retroflexus); test: Greenhouse post-emergence test, test series 1, AMARE; conditions: application rate 62.5 g/ha, scale 0 to 100 (100 = complete destruction, 0 = no damage)
Text: as §1, with “Series 1:” for “Series 2:”, “of 62.5” for “of 125”, “in post-emergence” for “in pre-emergence”, “tests against: AMARE (Amaranthus retroflexus)” for “tests against ALOMY (Alopecurus myosuroiedes)”

Cc1c(NC(=O)N(C)CC(F)(F)F)c(Cl)cc(F)c1C(=O)Nc1nnnn1C [Example 12]
> 85%: pest or weed control at 125 g/ha [1] | pest or weed control at 62.5 g/ha [2] | pest or weed control at 62.5 g/ha [3]

CC(C)N(CC(F)(F)F)C(=O)Nc1c(C(F)(F)F)cc(F)c(C(=O)Nc2nnnn2C)c1Cl [Example 14]
> 85%: pest or weed control at 125 g/ha [1] | pest or weed control at 62.5 g/ha [2] | pest or weed control at 62.5 g/ha [3]

CCN(CC(F)(F)F)C(=O)Nc1c(Cl)cc(F)c(C(=O)Nc2nnnn2C)c1C [Example 18]
> 85%: pest or weed control at 125 g/ha [1] | pest or weed control at 62.5 g/ha [2] | pest or weed control at 62.5 g/ha [3]

Cc1c(NC(=O)N(C)CC(F)(F)F)c(Br)cc(F)c1C(=O)Nc1nnnn1C [Example 1, 4-bromo-6-fluoro-2-methyl-N-(1-methyltetrazol-5-yl)-3-[[methyl(2,2,2-trifluoroethyl)carbamoyl]amino]benzamide]
> 85%: pest or weed control at 125 g/ha [1] | pest or weed control at 62.5 g/ha [2] | pest or weed control at 62.5 g/ha [3]

Cc1c(NC(=O)N(CC(F)(F)F)CC(F)(F)F)c(Cl)cc(F)c1C(=O)Nc1nnnn1C [Example 19]
> 85%: pest or weed control at 125 g/ha [1] | pest or weed control at 62.5 g/ha [2] | pest or weed control at 62.5 g/ha [3]

CCN(CC(F)(F)F)C(=O)Nc1c(Cl)cc(F)c(C(=O)Nc2nnnn2C)c1Cl [Example 8]
> 85%: pest or weed control at 125 g/ha [1] | pest or weed control at 62.5 g/ha [2] | pest or weed control at 62.5 g/ha [3]

Cn1nnnc1NC(=O)c1c(F)cc(C(F)(F)F)c(NC(=O)N(CC(F)(F)F)CC(F)(F)F)c1Cl [Example 22]
> 85%: pest or weed control at 125 g/ha [1] | pest or weed control at 62.5 g/ha [2] | pest or weed control at 62.5 g/ha [3]

Cc1c(NC(=O)N(CC(F)(F)F)C2CC2)c(Cl)cc(F)c1C(=O)Nc1nnnn1C [Example 21]
> 85%: pest or weed control at 125 g/ha [1] | pest or weed control at 62.5 g/ha [2] | pest or weed control at 62.5 g/ha [3]

CN(CC(F)(F)F)C(=O)Nc1c(Cl)cc(F)c(C(=O)Nc2nnnn2C)c1Cl [Example 9, 2,4-dichloro-6-fluoro-N-(1-methyltetrazol-5-yl)-3-[[methyl(2,2,2-trifluoroethyl)carbamoyl]amino]benzamide]
> 85%: pest or weed control at 125 g/ha [1] | pest or weed control at 62.5 g/ha [2] | pest or weed control at 62.5 g/ha [3]

CN(CC(F)(F)F)C(=O)Nc1c(C(F)(F)F)cc(F)c(C(=O)Nc2nnnn2C)c1Cl [Example 10]
> 85%: pest or weed control at 125 g/ha [1] | pest or weed control at 62.5 g/ha [2] | pest or weed control at 62.5 g/ha [3]

Cc1c(NC(=O)N(CC(F)(F)F)C(C)C)c(Cl)cc(F)c1C(=O)Nc1nnnn1C [Example 13]
> 85%: pest or weed control at 125 g/ha [1] | pest or weed control at 62.5 g/ha [2] | pest or weed control at 62.5 g/ha [3]

CCN(CC(F)(F)F)C(=O)Nc1c(Br)cc(F)c(C(=O)Nc2nnnn2C)c1C [Example 2, 4-bromo-6-fluoro-2-methyl-N-(1-methyltetrazol-5-yl)-3-[[ethyl(2,2,2-trifluoroethyl)carbamoyl]amino]benzamide]
> 85%: pest or weed control at 125 g/ha [1] | pest or weed control at 62.5 g/ha [2] | pest or weed control at 62.5 g/ha [3]

Cc1c(NC(=O)N(CC(F)(F)F)CC(F)(F)F)c(Br)cc(F)c1C(=O)Nc1nnnn1C [Example 3]
> 85%: pest or weed control at 125 g/ha [1] | pest or weed control at 62.5 g/ha [2] | pest or weed control at 62.5 g/ha [3]

CC(C)N(CC(F)(F)F)C(=O)Nc1c(Cl)cc(F)c(C(=O)Nc2nnnn2C)c1Cl [Example 20]
> 85%: pest or weed control at 125 g/ha [1] | pest or weed control at 62.5 g/ha [2] | pest or weed control at 62.5 g/ha [3]

Cc1c(NC(=O)N(CC(F)(F)F)C2CC2)c(Br)cc(F)c1C(=O)Nc1nnnn1C [Example 6]
> 85%: pest or weed control at 125 g/ha [1] | pest or weed control at 62.5 g/ha [2] | pest or weed control at 62.5 g/ha [3]

Cn1nnnc1NC(=O)c1c(F)cc(Cl)c(NC(=O)N(CC(F)(F)F)C2CC2)c1Cl [Example 7]
> 85%: pest or weed control at 125 g/ha [1] | pest or weed control at 62.5 g/ha [2] | pest or weed control at 62.5 g/ha [3]
